We go through 15 compounds from PubChem BioAssay (NCI).

Each structure is given as a SMILES string.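 Interpolation was linear, between the two tested concentrations surrounding the appropriate level; five concentrations were tested over 48 hours in 96-well plates. At the GI50, growth is halved. Definition used: TGI = concentration required for complete inhibition of growth.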

Common to all, as to test: NCI tumour cell line growth inhibition, 48 h
Experiment [1] has as its system OVCAR-4 ovarian.
For experiment [2], the system named is MCF7 breast.
The subject of experiment [3] is SNB-75 CNS.
Experiment [4] relates to A498 renal.
The subject of experiment [5] is RPMI-8226 leukemia.
Experiment [6] has as its system KM12 colon.
In experiment [7] the test system is SNB-19 CNS.
For experiment [8], the system named is COLO 205 colon.
Experiment [9] has as its system MALME-3M melanoma.
The test system of experiment [10] is SK-OV-3 ovarian.

Consider `O=C1c2cc(Cl)ccc2S(=O)(=O)c2c(NCCCNCCO)nc3ccccc3c21`, for which the GI50 was 0.985 µM in experiment [1]; 1.52 µM in experiment [2]; 2.15 µM in experiment [3]; 2.95 µM in [4]; 0.888 µM in experiment [5]; 1.59 µM in [6]. Also, the GI50 in [7] is 3.77 µM; in experiment [8], 1.01 µM; in [9] it was 1.19 µM; in experiment [10] it was 8.54 µM. Further, the TGI is 2.18 µM in experiment [1]; 3.71 µM in [2]; 9.35 µM in experiment [3]; 9.34 µM in [4]; 3.28 µM in [5]; 3.3 µM in experiment [6]. The TGI in [7] was 14.4 µM; in experiment [8], 2.35 µM; in experiment [9], 2.56 µM; in experiment [10] it was 20.9 µM.
Regarding `CCOc1cc2c(Cl)ncnc2c(OCC)c1OCC`, the GI50 was 13 µM in experiment [1]; 2.3 µM in experiment [2]; 3.11 µM in experiment [3]; 6.48 µM in experiment [4]; 3.29 µM in experiment [5]; 4.96 µM in [6]. The GI50 in [7] was 8.8 µM; in [8], 12.2 µM; in experiment [9] it was 9.5 µM; in [10] it was 16.5 µM. Besides, the TGI in [1] was found to be 27.7 µM; in experiment [2], 7.55 µM; in experiment [3], 15.9 µM; in experiment [4] it was 19.1 µM; in [5] it was 20.6 µM; in experiment [6], 16.4 µM. For the same compound, the TGI in experiment [7] came out at 21.4 µM; in experiment [8] it was 25.5 µM; in experiment [9] it was 27.5 µM; in experiment [10], 30.5 µM.
`CC[C@@]1(O)C(=O)OCc2c1cc1n(c2=O)Cc2c-1nc1cc3c(cc1c2CCl)OCO3`: the GI50 in experiment [1] was 0.693 µM; in experiment [2] it was < 0.01 µM; in experiment [3] it was < 0.01 µM; in experiment [4], < 0.0151 µM; in experiment [5] it was < 0.01 µM; in experiment [6], 0.181 µM. Further, the GI50 is < 0.018 µM in experiment [7], 1.15 µM in experiment [8], 0.0629 µM in [9] and < 0.01 µM in experiment [10]. For the same compound, the TGI in experiment [1] was 11.6 µM; in [2], > 100 µM; in experiment [3], 2.08 µM; in experiment [4], 0.753 µM; in experiment [5] it was 0.309 µM; in experiment [6], 1.88 µM. In addition, the TGI in experiment [7] was > 100 µM; in experiment [8], 3.4 µM; in experiment [9], 2 µM; in [10], 1.07 µM.
In the case of `CC(=O)OC[C@]1(C)C=C2C(=O)[C@](C)(O)C3(CC3)C(C)=C2[C@H]1O`, the GI50 in experiment [1] is 0.094 µM; in [2] it was 0.0273 µM; in experiment [3], 0.152 µM; in experiment [4], 0.148 µM; in experiment [5], 13.9 µM; in [6], 0.191 µM. In addition, the GI50 in experiment [7] was 0.193 µM; in experiment [8], 0.11 µM; in experiment [9], 0.124 µM; in [10], 0.194 µM. The TGI in experiment [1] was 0.649 µM; in [2], 15.5 µM; in [3], 0.35 µM; in experiment [4] it was 0.366 µM; in [5], > 81.5 µM; in experiment [6], > 34.7 µM. The TGI was 1.28 µM in experiment [7], 0.308 µM in [8], 0.302 µM in experiment [9] and 1.11 µM in experiment [10].
With `CC[CH2][Sn]([CH2]CC)([O]C(=O)c1cccnc1SC)[O][Sn]([CH2]CC)([CH2]CC)[O]C(=O)c1cccnc1SC`, the GI50 in experiment [1] was 1.03 µM; in experiment [2] it was 0.495 µM; in experiment [3], 0.584 µM; in experiment [4], 0.246 µM; in experiment [5], 0.139 µM; in [6], 1.5 µM. Also, the GI50 in [7] is 0.83 µM; in [8] it was 0.396 µM; in experiment [9], 0.237 µM; in [10], 1.53 µM. Moreover, the TGI in experiment [1] is 2.34 µM; in experiment [2], 1.72 µM; in [3], 1.97 µM; in experiment [4], 0.629 µM; in [5] it was > 100 µM; in experiment [6] it was 4.43 µM. The TGI in [7] was found to be 2.22 µM; in experiment [8], 1.08 µM; in experiment [9], 0.566 µM; in experiment [10] it was 3.61 µM.
In the case of `CC(C)c1nc(CN(C)C(=O)N[C@H](C(=O)N[C@@H](Cc2ccccc2)C[C@H](O)[C@H](Cc2ccccc2)NC(=O)OCc2cncs2)C(C)C)cs1`, the GI50 in experiment [1] is 27.2 µM; in experiment [2], 21 µM; in experiment [3] it was 20.4 µM; in [4], 19.1 µM; in experiment [5], 7.9 µM; in [6] it was 23.1 µM. Moreover, the GI50 was 26.4 µM in experiment [7], 17.6 µM in [8], 22.1 µM in experiment [9] and 35.8 µM in [10]. For the same compound, the TGI in [1] is > 92.1 µM; in [2] it was 64.9 µM; in experiment [3], 54.3 µM; in experiment [4] it was 43.2 µM; in experiment [5], 27.7 µM; in [6] it was 56.7 µM. Moreover, the TGI in experiment [7] is > 89 µM; in [8], 38.2 µM; in experiment [9], > 57 µM; in [10], > 100 µM.
With `Cn1c2ccccc2c2c(-c3ccccc3)[n+]3ccncc3nc21`, the GI50 was > 100 µM in [1]; 63.6 µM in experiment [2]; > 100 µM in [3]; > 100 µM in experiment [4]; 36.1 µM in experiment [5]; 74.9 µM in experiment [6]. In addition, the GI50 in experiment [7] was 51.8 µM; in experiment [8], 29.5 µM; in [9] it was 93.8 µM; in experiment [10], > 100 µM. The TGI in experiment [1], in experiment [2], in experiment [3], in [4], in experiment [5] and in experiment [6] was > 100 µM throughout. In addition, the TGI in experiment [7], in experiment [8], in experiment [9] and in [10] was > 100 µM each time.
For the compound `C[C@@H]1OC(O)[C@@H](F)[C@H](O)[C@@H]1O` (stereo not given in full), the GI50 in experiment [1], in experiment [2], in experiment [3], in [4], in experiment [5] and in [6] was > 100 µM each time. Also, the GI50 in experiment [7], in [8], in experiment [9] and in experiment [10] was > 100 µM each time. Also, the TGI in experiment [1], in experiment [2], in experiment [3], in experiment [4], in experiment [5] and in experiment [6] was > 100 µM throughout. The TGI in [7], in [8], in experiment [9] and in experiment [10] was > 100 µM in each case.
Consider `Cn1c(=O)c2[nH]c(SCc3ccccn3)nc2n(C)c1=S`, for which the TGI in experiment [1] was > 100 µM; in experiment [2], > 100 µM; in [3] it was 45.2 µM; in [4] it was 55.2 µM; in [5], > 100 µM; in [6], > 100 µM. In addition, the TGI in experiment [7] is > 100 µM; in experiment [8], > 100 µM; in experiment [9], > 100 µM; in [10] it was 66.4 µM.
As for `O=C1Nc2c(C(F)(F)F)cccc2[C@]1(c1ccc(O)cc1)c1ccc(OC(F)(F)F)cc1`, the GI50 in experiment [1] was 0.543 µM; in [2], 4.05 µM; in experiment [3], 5.78 µM; in experiment [4], 14.7 µM; in [5], 10.4 µM; in experiment [6], 11.3 µM. For the same compound, the GI50 was 14.1 µM in experiment [7], 3.26 µM in experiment [8], 13 µM in experiment [9] and 17.3 µM in experiment [10]. The TGI in experiment [1] came to 5.23 µM; in experiment [2], 16.9 µM; in experiment [3], 19.5 µM; in [4], 30 µM; in [5], 59.1 µM; in [6] it was 24.2 µM. Moreover, the TGI was determined as 27.2 µM in experiment [7], 25.4 µM in experiment [8], 26.6 µM in [9] and 36.5 µM in experiment [10].
For the compound `Cc1ccc(NC(=O)c2cccc(N(C)C)c2)cc1NC(=O)c1ccc(O)cc1`, the GI50 in [1] was 38.6 µM; in experiment [2], 52 µM; in experiment [3] it was 26.3 µM; in experiment [4], > 83.6 µM; in [5] it was > 63.1 µM; in [6], 54.9 µM. For the same compound, the GI50 was 51.1 µM in [7], > 64.7 µM in experiment [8], > 75.9 µM in [9] and 65.7 µM in experiment [10]. Besides, the TGI in [1] was > 100 µM; in experiment [2], > 100 µM; in experiment [3], > 81.8 µM; in [4] it was > 100 µM; in experiment [5] it was > 100 µM; in [6], > 100 µM. Further, the TGI in [7], in [8], in experiment [9] and in experiment [10] was > 100 µM throughout.
As to `C=C1C(=O)O[C@H]2[C@H]1CC/C(COC(=O)c1ccc3ccccc3c1)=C\CC[C@@]1(C)O[C@@H]21`, the GI50 was 1.52 µM in experiment [1]; 0.457 µM in experiment [2]; 1.44 µM in experiment [3]; 1.88 µM in experiment [4]; 0.281 µM in experiment [5]; 1.48 µM in [6]. For the same compound, the GI50 in experiment [7] is 1.36 µM; in experiment [8], 1.36 µM; in [9] it was 1.74 µM; in experiment [10], 3.51 µM. The TGI in experiment [1] worked out at 3.32 µM; in [2] it was 2.52 µM; in experiment [3], 3.05 µM; in [4], 4.5 µM; in [5], 0.869 µM; in [6], 3.16 µM. For the same compound, the TGI in experiment [7] stood at 2.75 µM; in experiment [8] it was 2.94 µM; in [9], 3.47 µM; in experiment [10], 10.8 µM.
On to `CN1CCN(C)C12C=c1ccccc1=CC21CC1`, for which the TGI is > 100 µM in [1]; > 100 µM in [2]; > 93.1 µM in [3]; > 100 µM in experiment [4]; 75.1 µM in experiment [5]; 68.4 µM in experiment [6]. Besides, the TGI is > 100 µM in experiment [7], 25.6 µM in experiment [8], 59 µM in [9] and > 100 µM in experiment [10].
As to `Oc1ccc(CN2CCC(N3CCCCC3)CC2)c2cccnc12`, the GI50 in experiment [1] is 24.2 µM; in experiment [2], 21.5 µM; in experiment [3] it was 2.85 µM; in experiment [4], > 100 µM; in experiment [5], 6.33 µM; in experiment [6] it was 30.3 µM. Besides, the GI50 is 21.6 µM in experiment [7], 48.4 µM in [8], 24.4 µM in experiment [9] and 24.8 µM in [10]. Also, the TGI in experiment [1], in experiment [2], in experiment [3], in [4], in experiment [5] and in [6] was > 100 µM each time. The TGI in experiment [7], in experiment [8], in experiment [9] and in experiment [10] was > 100 µM throughout.
Take `COC(=O)[C@]12CC[C@@H](C)[C@H](C)[C@@H]1C1=CC[C@@H]3[C@@]4(C)C/C(=N\O)[C@H](O)[C@@]5(C)COC(=C45)C[C@@]3(C)[C@]1(C)CC2`: the GI50 in experiment [1] was 4.46 µM; in experiment [2], 3.5 µM; in experiment [3], 3.51 µM; in [4], 9.94 µM; in [5] it was 2.67 µM; in experiment [6], 5.77 µM. Besides, the GI50 in [7] is 10.5 µM; in experiment [8] it was 7.75 µM; in experiment [9], 15.9 µM; in [10] it was 16.6 µM. Moreover, the TGI is 18.6 µM in [1]; 15.3 µM in [2]; 21.4 µM in experiment [3]; 21.9 µM in [4]; 6.82 µM in experiment [5]; 20.2 µM in experiment [6]. The TGI in [7] is 31.5 µM; in experiment [8], 21.8 µM; in [9], 34.2 µM; in experiment [10], 30.5 µM.
